A short description of the series: Compound gel-forming ability in water (visual inspection, tube tapping assay, tilted tube assay).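 For all read-outs here: peptides mixed with de-ionized water at about 22-25 °C, judged after 20 min by eye plus tube tapping (10 taps, moves counted) and 90° tilt mobility.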 The class given is physicochemical. The note with it: for Physical property at 11% w/w: 11% w/w in aqueous solution, room temperature; for gel formation in aqueous solution, 11% / gel formation in aqueous solution, 6% / gel formation in aqueous solution, 20% / gel formation in aqueous solution, 3%: Table 3; for gel formation in aqueous solution, 11% / propensity to form gels, wild-type counterparts, 11% / propensity to form gels, chimeric or mutated polypeptides, 11%: 11% w/w; for gel formation at 6% w/w: 6% w/w in water; for gel formation at 11% w/w: 11% w/w in water; for gel formation at 20% w/w: 20% w/w in water; for gel formation in aqueous solution, 6% / propensity to form gels, chimeric or mutated polypeptides, 6% / propensity to form gels, wild-type counterparts, 6%: 6% w/w; for gel formation in aqueous solution, 20% / propensity to form gels, chimeric or mutated polypeptides, 20% / propensity to form gels, wild-type counterparts, 20%: 20% w/w; for gel formation at 3% w/w: 3% w/w in water.

Entries after “also recorded” stand apart in the source; their conditions may differ. Where no end group is shown, it is not given here. [ ]: non-standard residue; d: D form. The star is where a group is joined. Palmitoyl = CCCCCCCCCCCCCCCC(=O)*

With “(D-Nal)-(D-Cpa)-(D-Pal)-SY-(D-Cit)-LRP-(D-Ala)-NH2 [SEQ ID NO:27, reference compound]”, the “gel formation in aqueous solution, 11%” value is reported as “AS/IS (AS/IS for aqueous solution or insoluble)”. Where the note is “Table 1”, the “Physical property at 11% w/w” value is listed as “AS/IS”. For the same substance, for the setting “Table 5”, the “propensity to form gels, wild-type counterparts, 11%” value is on record as “AS/IS”.
Consider “Pal-RQSMNNFQGLRSFGCRFGTCTVQKLAHQIYQFTDKDKDNVAPRSKISPQGY-NH2 [SEQ ID NO:274]”, for which the “gel formation at 6% w/w” value is on record as “semisolid gel”; the “gel formation at 11% w/w” value is reported as “semisolid gel”; the “gel formation at 20% w/w” value was “semisolid gel”; the “gel formation in aqueous solution, 6%” value is “SS (SS for semisolid gel)”. The “gel formation in aqueous solution, 11%” value is “SS (SS for semisolid gel)” and the “gel formation in aqueous solution, 20%” value was “SS (SS for semisolid gel)”. Also, the “Physical property at 11% w/w” value (Table 1) is recorded as “SS (SS for semisolid gel)”. Moreover, where the note is “Table 5”, the “propensity to form gels, chimeric or mutated polypeptides, 6%” value was “SS (An ability to form semisolid gel is represented by an SS)”; the “propensity to form gels, chimeric or mutated polypeptides, 11%” value is “SS (An ability to form semisolid gel is represented by an SS)”; the “propensity to form gels, chimeric or mutated polypeptides, 20%” value was “SS (An ability to form semisolid gel is represented by an SS)”.
For “Pal-SSPHSY-miniPEG-KCNTATCATQRLANFLVHSSNNFGPILPPTNVGSNTY-NH2 ({Palmitoyl-Ser-Ser-Pro-H2N-Ser-Tyr-miniPEG}-KCNTATCATQRLANFLVHSSNNFGPILPPTNVGSNTY-NH2; ends and bridges not checked) [SEQ ID NO:218]”, the “gel formation at 6% w/w” value was “semisolid gel”; the “gel formation at 11% w/w” value is recorded as “semisolid gel”; the “gel formation in aqueous solution, 6%” value is recorded as “SS (SS for semisolid gel)”; the “gel formation in aqueous solution, 11%” value is reported as “SS (SS for semisolid gel)”. Moreover, under “Table 5”, the “propensity to form gels, chimeric or mutated polypeptides, 6%” value was “SS (An ability to form semisolid gel is represented by an SS)” and the “propensity to form gels, chimeric or mutated polypeptides, 11%” value is recorded as “SS (An ability to form semisolid gel is represented by an SS)”.
With “Pal-HSYRPKPQQFF-Sar-L-Met-(02)-NH2 [SEQ ID NO:254]”, the “gel formation in aqueous solution, 20%” value is listed as “SS (SS for semisolid gel)”. For the same substance, where the note is “Table 5”, the “propensity to form gels, chimeric or mutated polypeptides, 20%” value is given as “SS (An ability to form semisolid gel is represented by an SS)”.
On to “Pal-HSY-(D-Ala)-GF(D-Leu)-NH2 [SEQ ID NO:213]”, for which the “gel formation at 3% w/w” value is recorded as “semisolid gels”. For the same substance, where the note is “3% w/w”, the “gel formation in aqueous solution, 3%” value was “SS (SS for semisolid gel)”.
On to “Pal-SSPHSY-miniPEG-SLRRSSCFGGRMDRIGAQSGLGCNSFRY-NH2 [SEQ ID NO:238]”, for which the “gel formation at 11% w/w” value is “semisolid gel”; the “gel formation at 20% w/w” value is given as “semisolid gel”; the “gel formation in aqueous solution, 11%” value is listed as “SS (SS for semisolid gel)”; the “gel formation in aqueous solution, 20%” value was “SS (SS for semisolid gel)”. Besides, where the note is “Table 5”, the “propensity to form gels, chimeric or mutated polypeptides, 11%” value is given as “SS (An ability to form semisolid gel is represented by an SS)” and the “propensity to form gels, chimeric or mutated polypeptides, 20%” value is given as “SS (An ability to form semisolid gel is represented by an SS)”.
Regarding “Pal-KVQKLSAPVDPSSPHSY-miniPEG-(D-Tyr)QWAV(β-Ala)HF(Nle)-NH2 [SEQ ID NO:209]”, the “gel formation in aqueous solution, 6%” value is reported as “SS (SS for semisolid gel)” and the “gel formation in aqueous solution, 11%” value is listed as “SS (SS for semisolid gel)”. Further, the “gel formation in aqueous solution, 3%” value (3% w/w) is on record as “SS (SS for semisolid gel)”. Moreover, the “propensity to form gels, chimeric or mutated polypeptides, 3%” value (Table 5, 3% w/w) is “SS (An ability to form semisolid gel is represented by an SS)”. For the setting “Table 5”, the “propensity to form gels, chimeric or mutated polypeptides, 6%” value is listed as “SS (An ability to form semisolid gel is represented by an SS)” and the “propensity to form gels, chimeric or mutated polypeptides, 11%” value is listed as “SS (An ability to form semisolid gel is represented by an SS)”.
For the substance “GRKKRRQRRRPQ [SEQ ID NO:36, reference compound]”, the “gel formation at 11% w/w” value was “cannot form gel”; the “gel formation at 20% w/w” value is listed as “cannot form gel”; the “gel formation in aqueous solution, 11%” value is recorded as “AS/IS (AS/IS for aqueous solution or insoluble)”; the “gel formation in aqueous solution, 20%” value is on record as “AS/IS (AS/IS for aqueous solution or insoluble)”. Moreover, the “Physical property at 11% w/w” value (Table 1) is “AS/IS”. Besides, for the setting “Table 5”, the “propensity to form gels, wild-type counterparts, 11%” value is reported as “AS/IS” and the “propensity to form gels, wild-type counterparts, 20%” value was “AS/IS”. The “gel formation at the selected concentration” value (selected concentration (i.e., at 30%, 20%, 11%, or 6% w/w)) was “only form aqueous solution or are insoluble”.
Turning to “Pal-SSPHSY-miniPEG-HGDGSFSDEMNTILDNLAARDFINWLIQTKITD-OH [SEQ ID NO:222]”, the “gel formation at 6% w/w” value was “liquid gel”; the “gel formation at 11% w/w” value is listed as “semisolid gel”; the “gel formation in aqueous solution, 11%” value is given as “SS (SS for semisolid gel)”. In addition, the “propensity to form gels, chimeric or mutated polypeptides, 11%” value (Table 5) is recorded as “SS (An ability to form semisolid gel is represented by an SS)”.
“Pal-KVQKLAHQIYQFTD(Aib)DSAPVDPSSPHSY-NH2 [SEQ ID NO:124]”: the “Physical property at 11% w/w” value (Table 2) is recorded as “SS (SS for semisolid gel)”.
Consider Pal-HSYFFGLM-NH2 [SEQ ID NO:253], for which the “gel formation in aqueous solution, 6%” value was “AS/IS (AS/IS for aqueous solution or insoluble)” and the “gel formation in aqueous solution, 11%” value is recorded as “SS (SS for semisolid gel)”. Besides, under “Table 5”, the “propensity to form gels, chimeric or mutated polypeptides, 6%” value was “AS/IS” and the “propensity to form gels, chimeric or mutated polypeptides, 11%” value is on record as “SS (An ability to form semisolid gel is represented by an SS)”.
“Pal-SSPHSY-miniPEG-SYSMEHFRWGKPVGKKRRPVKVYP-OH [SEQ ID NO:225]”: the “gel formation in aqueous solution, 11%” value is on record as “AS/IS (AS/IS for aqueous solution or insoluble)” and the “gel formation in aqueous solution, 20%” value is “SS (SS for semisolid gel)”.
As to “Pal-KVQKLAHQSAPVDPSSPHSY-NH2 [SEQ ID NO:105]”, where the note is “Table 2”, the “Physical property at 11% w/w” value is “AS/IS (AS/IS for aqueous solution or insoluble)”.
“Ace-TVQKLAHQIYQFTDKDKDNVAPRSKISPQGY-NH2 [SEQ ID NO:101]”: the “Physical property at 11% w/w” value (Table 2) is “AS/IS (AS/IS for aqueous solution or insoluble)”.
For “RPKPQQFF-Sar-L-Met-(O2)-NH2 [SEQ ID NO:69, reference compound]”, the “gel formation in aqueous solution, 6%” value is “AS/IS (AS/IS for aqueous solution or insoluble)”; the “gel formation in aqueous solution, 11%” value is listed as “AS/IS (AS/IS for aqueous solution or insoluble)”; the “gel formation in aqueous solution, 20%” value is recorded as “AS/IS (AS/IS for aqueous solution or insoluble)”. Besides, for the setting “Table 5”, the “propensity to form gels, wild-type counterparts, 6%” value is “AS/IS”; the “propensity to form gels, wild-type counterparts, 11%” value is on record as “AS/IS”; the “propensity to form gels, wild-type counterparts, 20%” value is “AS/IS”.
In the case of “Ac-EEMQRR-NH2 [SEQ ID NO:47, reference compound]”, the “gel formation in aqueous solution, 11%” value is given as “AS/IS (AS/IS for aqueous solution or insoluble)”. Moreover, under “Table 1”, the “Physical property at 11% w/w” value is “AS/IS”. Besides, the “propensity to form gels, wild-type counterparts, 11%” value (Table 5) is listed as “AS/IS”.
For “Pal-HSY-Nle-cyclo[Asp-His-D-Phe-Arg-Trp-Lys]-NH2 [SEQ ID NO:257]”, the “gel formation in aqueous solution, 11%” value is recorded as “SS (SS for semisolid gel)” and the “gel formation in aqueous solution, 20%” value is recorded as “SS (SS for semisolid gel)”. Where the note is “Table 5”, the “propensity to form gels, chimeric or mutated polypeptides, 11%” value was “SS (An ability to form semisolid gel is represented by an SS)” and the “propensity to form gels, chimeric or mutated polypeptides, 20%” value is “SS (An ability to form semisolid gel is represented by an SS)”.
With “[dF][dF]W[dR] [SEQ ID NO:7, reference compound]”, the “gel formation at 3% w/w” value is listed as “semisolid gel”; the “gel formation at 6% w/w” value was “semisolid gel”; the “gel formation at 11% w/w” value is on record as “form self-assembling gels; also recorded: semisolid gel”; the “gel formation in aqueous solution, 6%” value was “SS (SS for semisolid gel)”. In addition, the “gel formation in aqueous solution, 11%” value is given as “SS (SS for semisolid gel)”. Moreover, the “Physical property at 11% w/w” value (Table 1) was “SS (SS for semisolid gel)”. In addition, under “3% w/w”, the “gel formation in aqueous solution, 3%” value is recorded as “SS (SS for semisolid gel)”. Moreover, where the note is “Table 5, 3% w/w”, the “propensity to form gels, wild-type counterparts, 3%” value is given as “SS (An ability to form semisolid gel is represented by an SS)”. Moreover, for the setting “Table 5”, the “propensity to form gels, wild-type counterparts, 6%” value is listed as “SS (An ability to form semisolid gel is represented by an SS)” and the “propensity to form gels, wild-type counterparts, 11%” value is “SS (An ability to form semisolid gel is represented by an SS)”.
Consider “Pal-KVQKLNFVPTNVGSKAY-NH2 (Palmitoyl-KVQKLNFVPTNVGSKAY-NH2; SMILES CCCCCCCCCCCCCCCC(=O)N[C@@H](CCCCN)C(=O)N[C@H](C(=O)N[C@@H](CCC(N)=O)C(=O)N[C@@H](CCCCN)C(=O)N[C@@H](CC(C)C)C(=O)N[C@@H](CC(N)=O)C(=O)N[C@@H](Cc1ccccc1)C(=O)N[C@H](C(=O)N1CCC[C@H]1C(=O)N[C@H](C(=O)N[C@@H](CC(N)=O)C(=O)N[C@H](C(=O)NCC(=O)N[C@@H](CO)C(=O)N[C@@H](CCCCN)C(=O)N[C@@H](C)C(=O)N[C@@H](Cc1ccc(O)cc1)C(N)=O)C(C)C)[C@@H](C)O)C(C)C)C(C)C) [SEQ ID NO:139]”, for which the “Physical property at 11% w/w” value (Table 2) is “SS (SS for semisolid gel)”.
As to “Pal-KVQKLSAPVDPSSPHSY-miniPEG-Sar-RVYVHPA-NH2 [SEQ ID NO:216]”, the “gel formation at 11% w/w” value is listed as “liquid gel” and the “gel formation at 20% w/w” value is given as “liquid gel”.
For “Pal-SSPHSY-miniPEG-YRSRKYSSVVY-NH2 ({Palmitoyl-Ser-Ser-Pro-H2N-Ser-Tyr-miniPEG}-YRSRKYSSVVY-NH2) [SEQ ID NO:249]”, the “gel formation at 11% w/w” value was “semisolid gel”; the “gel formation in aqueous solution, 6%” value is given as “AS/IS (AS/IS for aqueous solution or insoluble)”; the “gel formation in aqueous solution, 11%” value is given as “SS (SS for semisolid gel)”. In addition, under “Table 5”, the “propensity to form gels, chimeric or mutated polypeptides, 6%” value is given as “AS/IS” and the “propensity to form gels, chimeric or mutated polypeptides, 11%” value is listed as “SS (An ability to form semisolid gel is represented by an SS)”.
Turning to “HAEGTFTSDVSSYLEGQAAREFIAWLVK(YSHPSS-Pal)GRG [SEQ ID NO:270]”, the “gel formation in aqueous solution, 11%” value is recorded as “SS (SS for semisolid gel)” and the “gel formation in aqueous solution, 20%” value was “SS (SS for semisolid gel)”. For the setting “Table 5”, the “propensity to form gels, chimeric or mutated polypeptides, 11%” value was “SS (An ability to form semisolid gel is represented by an SS)” and the “propensity to form gels, chimeric or mutated polypeptides, 20%” value was “SS (An ability to form semisolid gel is represented by an SS)”.

Values taken from patent US20200405868A1, “GEL-FORMING POLYPEPTIDES” (priority 2018, published 2020).
